Patent publication US7425608B2, “Method of making metallopeptides” (Palatin Technologies, Inc., priority 1998, dated 2008)
Where two headings read alike, the source gives them in different places. *: point of attachment. Cbz = O=C(OCc1ccccc1)*

How the values were obtained:
[1] = cited from earlier work
[2] = target: T1, human neutrophil elastase (HNE) (Homo sapiens, UniProt P08246); test: Human neutrophil elastase inhibition, spectrophotometric assay with chromogenic p-nitroanilide substrate; format: biochemical; settings: individually resynthesised ReO metallopeptides Z-Aaa-Ser-Cys-Val-NH2 (deconvolution of the most active pool)
T1 construct: purchased Sigma (St. Louis, Mo.)
T1 sequence (P08246 30-267): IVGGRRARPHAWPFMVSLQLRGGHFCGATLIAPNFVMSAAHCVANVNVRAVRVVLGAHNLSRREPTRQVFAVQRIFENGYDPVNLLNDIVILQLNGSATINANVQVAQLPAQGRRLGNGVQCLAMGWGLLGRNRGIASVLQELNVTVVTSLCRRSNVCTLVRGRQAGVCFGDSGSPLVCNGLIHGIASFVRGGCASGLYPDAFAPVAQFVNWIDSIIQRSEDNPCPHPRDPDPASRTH
Experimental: Purified human neutrophil elastase (HNE) was purchased from Sigma (St. Louis, Mo.). The assay was performed spectrophotometrically using a chromogenic p-nitroanilide substrate, MeOSuc-Ala-Ala-Pro-Val-pNA, also purchased from Sigma. The assay protocols were similar to those described by others (e.g., Nakajima K et al: J Biol Chem, 254:4027-4032, 1979). Briefly, 0.05 units of HNE were treated with 1 mM concentration of the library pool in the presence of p-nitroanilide substrate. Spectrophotometric measurement were made at a wavelength of 410 nm. […] Also, among this limited series of compounds, benzyloxycarbonyl group was identified as a preferred R group where Bbb was a Gly, Ala, or Ser residue.
The pool with highest activity, Z-Aaa-Ser-Cys-Val-NH2, was deconvoluted by an iterative resynthesis process. All five individual peptides in this pool were synthesized by the methodologies and protocols of Example 10. Each individual peptide was characterized by mass spectrometry and HPLC. A screening assay was performed as generally described in Example 11. The best results were obtained with Leu or Ile in the position Aaa in the peptide chain. […] Substitution of the three residues Ala, Phe, and Lys(N-Z) at Aaa yielded IC50 values in excess of 1,000 μM.

[3] = related to the ionic core charge of the metal complex

IC50 [2] [µM] | Molecule | compartmentalisation / excretion / passage across biological barriers [1, 3] | other results
– | C/C(=N\O)C(C)NCC(C)(C)CNC(C)/C(C)=N/O (stereo not shown) [^99mTc-HMPAO, hexamethylpropyleneamine oxime, metal not drawn] | pass through the blood-brain barrier | –
179 | Cbz-ISCV-NH2 | – | –
– | methoxyisobutylisonitrile [^99mTc-MIBI] | – | compartmentalisation / excretion / passage across biological barriers ([1]; in vivo): compartmentalized in heart muscles
> 1000 | Z-Lys(N,-Z)-Ser-Cys-Val-NH2 | – | –
– | CCOC(=O)[C@H](C[S-])[N-]CCN[C@@H](C[S-])C(=O)OCC.[O-2].[Tc] [^99mTc-ECD, ethyl cysteinate dimer] | pass through the blood-brain barrier | –
139 | Z-Leu-Ser-Cys-Val-NH2 (Cbz-LSCV-NH2; not fully specified; printed as Z-Leu-Ser-Cys-Val-NH2) | – | –
– | O=C(O)CNC(=O)CNC(=O)CNC(=O)CS [^99mTc-MAG3, mercaptoacetylglycylglycylglycine, metal not drawn] | excreted through the kidneys | –
